Measured values reported in ChEMBL document CHEMBL1201862, “PubChem BioAssay data set” (2004).
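Five compound concentrations were applied to cells in 96-well plates for 48 hours; endpoints were derived by simple linear interpolation of the resulting dose-response curve. The concentration for 50% growth inhibition is given as GI50.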 The source made the active and inactive calls. Cut-off read from the data, not from the text of the source: active = GI50 up to about 1.1 µM and inactive = higher.

Legend:
Assay in all cases: DTP human tumour cell line panel, 48 h
A549 = system: A549
CAKI-1 = system: CAKI-1
COLO 205 = system: COLO 205
EKVX = system: EKVX
HCC 2998 = system: HCC 2998
HCT-116 = system: HCT-116
HL-60 = system: HL-60
IGROV-1 = system: IGROV-1
K562 = system: K562
KM12 = system: KM12
M14 = system: M14
MDA-MB-231 = system: MDA-MB-231
MDA-MB-435 = system: MDA-MB-435
MOLT-4 = system: MOLT-4
NCI-H226 = system: NCI-H226
NCI-H23 = system: NCI-H23
OVCAR-5 = system: OVCAR-5
SK-MEL-2 = system: SK-MEL-2
SK-OV-3 = system: SK-OV-3
U-251 = system: U-251

SMILES	GI50 (A549)	GI50 (CAKI-1)	GI50 (COLO 205)	GI50 (EKVX)	GI50 (HCC 2998)	GI50 (HCT-116)	GI50 (HL-60)	GI50 (IGROV-1)	GI50 (K562)	GI50 (KM12)	GI50 (M14)	GI50 (MDA-MB-231)	GI50 (MDA-MB-435)	GI50 (MOLT-4)	GI50 (NCI-H226)	GI50 (NCI-H23)	GI50 (OVCAR-5)	GI50 (SK-MEL-2)	GI50 (SK-OV-3)	GI50 (U-251)
CCOC(=O)N1CCc2cc(OC)c(OC)c3c2c1cc1cc(OC)c(OC)cc13	1.7 µM (inactive)	2.51 µM (inactive)	0.787 µM (active)	8.97 µM (inactive)	2.29 µM (inactive)	1.22 µM (inactive)	1.32 µM (inactive)	4.57 µM (inactive)	2.91 µM (inactive)	0.695 µM (active)	4.29 µM (inactive)	5.96 µM (inactive)	0.393 µM (active)	5.32 µM (inactive)	4.33 µM (inactive)	3.95 µM (inactive)	16.9 µM (inactive)	2.24 µM (inactive)	2.56 µM (inactive)	2.7 µM (inactive)
Cc1c(C2=C(Br)C(=O)N(C)C2=O)c(=O)n(C)c(=O)n1C	> 100 µM (inactive)	19 µM (inactive)	15.3 µM (inactive)	21.6 µM (inactive)	22.2 µM (inactive)	20.5 µM (inactive)	17.1 µM (inactive)	18 µM (inactive)	21.3 µM (inactive)	> 100 µM (inactive)	35.1 µM (inactive)	25.2 µM (inactive)	24.9 µM (inactive)	15.8 µM (inactive)	> 100 µM (inactive)	20.7 µM (inactive)	61.8 µM (inactive)	16.1 µM (inactive)	> 100 µM (inactive)	63.1 µM (inactive)
CCCCC/C=C1\CCC(CN2CCOCC2)C1=O (stereo not given)	20.7 µM (inactive)	5.28 µM (inactive)	3.67 µM (inactive)	17.5 µM (inactive)	12.5 µM (inactive)	9.35 µM (inactive)	2.26 µM (inactive)	13.8 µM (inactive)	2.36 µM (inactive)	3.49 µM (inactive)	6.7 µM (inactive)	4.7 µM (inactive)	5.25 µM (inactive)	2.43 µM (inactive)	16.9 µM (inactive)	11.2 µM (inactive)	18.6 µM (inactive)	13.7 µM (inactive)	18.5 µM (inactive)	10.8 µM (inactive)
C=C1CC(c2ccc(OCCCN3C(=O)c4ccccc4C3=O)c(OC)c2)OC1=O (stereo not given)	13.6 µM (inactive)	3.66 µM (inactive)	1.4 µM (inactive)	11 µM (inactive)	12 µM (inactive)	1.6 µM (inactive)	1.25 µM (inactive)	2.56 µM (inactive)	1.07 µM (active)	10.8 µM (inactive)	4.3 µM (inactive)	9.25 µM (inactive)	2.04 µM (inactive)	0.615 µM (active)	5.61 µM (inactive)	4.82 µM (inactive)	13.7 µM (inactive)	4.7 µM (inactive)	15.4 µM (inactive)	7.98 µM (inactive)
COc1c2c(cc3occ(-c4ccc(CC=C(C)C)cc4)c(=O)c13)OC(C)(C)C=C2	30.1 µM (inactive)	> 100 µM (inactive)	43.4 µM (inactive)	28.4 µM (inactive)	59.2 µM (inactive)	26.4 µM (inactive)	10.3 µM (inactive)	> 100 µM (inactive)	10.6 µM (inactive)	41.4 µM (inactive)	34.3 µM (inactive)	> 100 µM (inactive)	27 µM (inactive)	10.7 µM (inactive)	48.1 µM (inactive)	25.8 µM (inactive)	> 100 µM (inactive)	11.2 µM (inactive)	> 100 µM (inactive)	33.7 µM (inactive)
CNc1nnc(CNc2ccc(-c3nnc(NC)n3N)cc2)n1N	> 100 µM (inactive)	> 100 µM (inactive)	> 100 µM (inactive)	> 100 µM (inactive)	< 0.01 µM (active)	> 100 µM (inactive)	39.5 µM (inactive)	> 100 µM (inactive)	> 100 µM (inactive)	> 100 µM (inactive)	> 100 µM (inactive)	> 100 µM (inactive)	> 100 µM (inactive)	> 100 µM (inactive)	> 100 µM (inactive)	> 100 µM (inactive)	> 100 µM (inactive)	> 100 µM (inactive)	> 100 µM (inactive)	> 100 µM (inactive)
O=c1[nH]nc(Cc2ccc(Cl)cc2)n1/N=C\CC/C=N\n1c(Cc2ccc(Cl)cc2)n[nH]c1=O	> 100 µM (inactive)	> 56 µM (inactive)	> 100 µM (inactive)	21.3 µM (inactive)	> 100 µM (inactive)	27.2 µM (inactive)	> 24.2 µM (inactive)	9.93 µM (inactive)	> 88.7 µM (inactive)	> 100 µM (inactive)	32.8 µM (inactive)	25.8 µM (inactive)	> 53.6 µM (inactive)	> 24.1 µM (inactive)	18.4 µM (inactive)	32.3 µM (inactive)	> 100 µM (inactive)	29.8 µM (inactive)	31.5 µM (inactive)	16.4 µM (inactive)
CC1(C)C2CC(c3ccncc3)ON2C(C)(C)N1O (stereo not given)	> 100 µM (inactive)	> 100 µM (inactive)	> 100 µM (inactive)	> 100 µM (inactive)	> 100 µM (inactive)	> 100 µM (inactive)	> 100 µM (inactive)	> 100 µM (inactive)	> 100 µM (inactive)	> 100 µM (inactive)	> 100 µM (inactive)	> 100 µM (inactive)	> 100 µM (inactive)	> 100 µM (inactive)	> 100 µM (inactive)	> 100 µM (inactive)	> 100 µM (inactive)	> 100 µM (inactive)	> 100 µM (inactive)	> 100 µM (inactive)
Cc1ccc(C(=O)N(Cc2ccccc2)Cc2ccccc2)cc1/N=N/N(C)C	17.5 µM (inactive)	6.82 µM (inactive)	21.5 µM (inactive)	35.3 µM (inactive)	29.6 µM (inactive)	8.39 µM (inactive)	22.6 µM (inactive)	40.1 µM (inactive)	27.2 µM (inactive)	8.32 µM (inactive)	18.1 µM (inactive)	22.9 µM (inactive)	22.4 µM (inactive)	26.4 µM (inactive)	19.1 µM (inactive)	11.2 µM (inactive)	39.2 µM (inactive)	3.08 µM (inactive)	29.5 µM (inactive)	37.8 µM (inactive)
CN(C)CCNc1ccc2nnn3c4ccc(Cl)cc4c(=O)c1c23	2.72 µM (inactive)	2.25 µM (inactive)	1.18 µM (inactive)	4.45 µM (inactive)	8.67 µM (inactive)	1.48 µM (inactive)	4.73 µM (inactive)	3.65 µM (inactive)	2.14 µM (inactive)	4.54 µM (inactive)	4.94 µM (inactive)	11.1 µM (inactive)	4.65 µM (inactive)	0.624 µM (active)	2.06 µM (inactive)	5.09 µM (inactive)	4.14 µM (inactive)	6.19 µM (inactive)	9.89 µM (inactive)	1.33 µM (inactive)
COc1ccc(Nc2nc(N)c(C(=O)c3ccc(Cl)cc3)s2)cc1	< 0.0224 µM (active)	< 0.01 µM (active)	0.0261 µM (active)	39.6 µM (inactive)	0.0357 µM (active)	< 0.01 µM (active)	< 0.01 µM (active)	0.0655 µM (active)	< 0.01 µM (active)	0.0432 µM (active)	< 0.01 µM (active)	0.047 µM (active)	< 0.01 µM (active)	< 0.01 µM (active)	0.018 µM (active)	< 0.0152 µM (active)	0.505 µM (active)	< 0.01 µM (active)	< 0.01 µM (active)	< 0.01 µM (active)
Nc1nc(F)nc2c1ncn2C1OC(CO)C(O)C1O (stereo not given)	43 µM (inactive)	34.6 µM (inactive)	53.1 µM (inactive)	> 100 µM (inactive)	49.3 µM (inactive)	39.5 µM (inactive)	42.5 µM (inactive)	> 100 µM (inactive)	> 76.6 µM (inactive)	> 100 µM (inactive)	8.53 µM (inactive)	> 100 µM (inactive)	35.7 µM (inactive)	1.14 µM (inactive)	> 100 µM (inactive)	13.3 µM (inactive)	> 100 µM (inactive)	> 100 µM (inactive)	23.2 µM (inactive)	> 81.5 µM (inactive)
COC(COC(N)=O)C1=C(N2CC2)C(=O)C(C)=C(N2CC2)C1=O (stereo not given) [CARBOQUONE]	0.0185 µM (active)	< 0.0119 µM (active)	0.113 µM (active)	0.47 µM (active)	0.131 µM (active)	0.0284 µM (active)	< 0.0114 µM (active)	0.197 µM (active)	0.0352 µM (active)	0.122 µM (active)	0.0395 µM (active)	0.292 µM (active)	0.0359 µM (active)	0.0418 µM (active)	0.0719 µM (active)	< 0.0148 µM (active)	0.106 µM (active)	0.193 µM (active)	0.0718 µM (active)	0.0366 µM (active)
